Assay results published in PMC12298827, “Subchronic Toxicities of Four Per- and Polyfluoroalkyl Substances (PFASs) by Oral Exposure in Sprague–Dawley Rats” (Toxics, 2025).

System: male and female SD rats
Test: 14-day dose-range-finding oral gavage study
Assay type: in vivo, rat
Conditions: both sexes, all doses
Protocol: Dose-range-finding (14-day) studies were conducted using male and female rats to establish dose levels for 90-day studies and identify potential target organ toxicities. Male and female rats (n = 5 sex/group, a control and three dose groups, corn oil vehicle dose volume of 5 mL/kg) were administered PFASs by oral gavage daily for 14 days and euthanized on study day (SD) 15. The dose levels for PFHI, CTFPA, and MHFPK were 0, 30, 100, and 300 mg/kg-day. The dose levels for PFNAC were 0, 10, 30, and 100 mg/kg-day. The in vivo data collected included BW, BWCs, FC, cage-side observations, and physical exams. Gross necropsies, relative and absolute organ weights, and clinical chemistry data were collected for all the groups. Macroscopic and microscopic pathology examinations were conducted for the control and high-dose groups initially; the other groups were examined if justified by experimental findings. Plasma samples were analyzed ~2 h post dosing on day 1 and at day 15 for the parent PFAS chemical.
Neurotoxicity was evaluated using the functional observational battery (FOB) and measuring locomotor activity (LMA) 2–4 h post dosing on SDs 78–80 and 80–84, respectively. For both the 14- and 90-day studies, an ophthalmologic examination was conducted prior to randomization and near the end of the study, using indirect ophthalmoscopy and slit–lamp biomicroscopy (as needed) after the administration of a mydriatic solution.
Hematology, biochemistry, and coagulation endpoints were measured at the termination of the study. A Siemens Advia 2120i hematology analyzer (Siemens Healthineers, Erlangen, Germany) was used to measure (or calculate) the parameters related to the complete blood count, leukocyte differential count, and reticulocyte count. The hematology parameters are listed and described in Table 2. The prothrombin time […] and activated partial thromboplastin time (APTT) were measured using an Instrumentation Laboratory (Bedford, MA, USA) ACL Elite Pro coagulation analyzer (laser–nephelometric centrifugal method).
At necropsy, the rats were visually examined for external abnormalities and organ weights (absolute and relative to the BW and brain weight), which were recorded (paired organs weighed together). The tissues were preserved in 10% neutral buffered formalin (NBF), except for the ocular tissues, testes, and epididymides, which were preserved in modified Davidson’s fixative and later transferred to 10% NBF. Bone marrow smears were prepared from the femurs, and the slides were air-dried, fixed in methanol, stained, and stored at room temperature for possible future evaluation. The preserved tissues were embedded in paraffin, sectioned, stained with hematoxylin and eosin, and examined by a board-certified veterinary pathologist.

With `FC(F)(F)C(F)(F)C(F)(F)C(F)(F)CCI` [PFHI, 1H,1H,2H,2H-Perfluorohexyl iodide] the “Bodyweight and bodyweight gain” value was “No changes”, the Clinical chemistry was “Mild increases in cholesterol levels in both sexes at 300 mg/kg-day and mild increases in glucose in males only at ≥100 mg/kg-day; from minimal to moderate increases in phosphorus in both sexes in all the dose groups” and the Clinical observations was “None”. The Coagulation endpoints was “No effects”, the Feed consumption was “Females: dose-dependent increase, not correlated with bodyweight changes; Males: no effects” and the Gross lesions was “None”. The Hematology was “Decreased red cell mass at 300 mg/kg-day in females and all the dose levels in males; minimal increases in absolute reticulocyte concentrations and from minimal to mild increases in MPV in both sexes at all the dose levels”, the Histopathology was “Mild liver hypertrophy in 4/5 males at 300 mg/kg-day and in 1/5 at 100 mg/kg-day; none in females” and the Morbidity and mortality was “None”. For the same molecule, the Ophthalmology was “No ocular lesions” and the Organ weight changes was “Increases in absolute and relative liver weights in males at 300 mg/kg-day and increases in liver weight/bodyweight ratio at ≥100 mg/kg-day; no changes in females”.
In the case of `O=C(O)C(F)(Cl)C(F)(F)F` (centres unmarked) [CTFPA, 2-Chloro-2,3,3,3-tetrafluoropropanoic acid], the “Bodyweight and bodyweight gain” value is reported as “No changes”, the Clinical chemistry is reported as “Females: mild increases in albumin, A/G ratio and mild sporadic decreases in globulin and minimal increases in the total protein; males: minimal increases in calcium and from minimal to mild increases in BUN at all the dose levels. At 300 mg/kg-day, mild increases in ALPi” and the Clinical observations is reported as “None”. For the same molecule, the Coagulation endpoints was “No effects”, the Feed consumption was “No effects” and the Gross lesions was “None”. The Hematology was “Mild increases in MPV in males at all the doses, not seen in females”, the Histopathology was “From minimal to moderate diffuse hepatocellular hypertrophy seen in the livers of males at ≥30 mg/kg-day (5/5 in all the groups, with severity increasing with dose) and females at ≥100 mg/kg-day (5/5 with, severity increasing with dose)” and the Morbidity and mortality was “None”. For the same molecule, the Ophthalmology was “No ocular lesions” and the Organ weight changes was “Females: liver at >100 mg/kg-day; males: liver, dose-dependent pattern in all the dose groups”.
For `C=CC(=O)OCC(F)(F)C(F)(F)C(F)(F)C(F)(F)C(F)(F)C(F)(F)C(F)(F)C(F)F` [PFNAC, 1H,1H,9H-Perfluorononyl acrylate], the “Bodyweight and bodyweight gain” value was “No changes”, the Clinical chemistry was “From mild to moderate decreases in mean cholesterol levels in males at all the dose levels and in females at 30 and 100 mg/kg-day, with from mild to moderate increases in triglycerides in both sexes at 100 mg/kg-day and in females at 30 mg/kg-day” and the Clinical observations was “None”. For the same molecule, the Coagulation endpoints was “No effects”, the Feed consumption was “No effects” and the Gross lesions was “None”. For the same molecule, the Hematology was “No effects considered as chemical related”, the Histopathology was “From minimal to moderate liver hypertrophy in males only in 2/5, 3/5, and 4/4 at doses of 10, 30, and 100 mg/kg-day, respectively” and the Morbidity and mortality was “None”. For the same molecule, the Ophthalmology was “No ocular lesions” and the Organ weight changes was “Dose-proportional increases in absolute and relative liver weights in all exposed males and females”.
In the case of `CC(=O)C(F)(F)C(F)(F)C(F)(F)F` [MHFPK, Methyl heptafluoropropyl ketone], the “Bodyweight and bodyweight gain” value is reported as “No changes”, the Clinical chemistry is reported as “Minimal increases in BUN and creatinine at 300 mg/kg-day for males; increased creatinine in females at ≥100 mg/kg-day” and the Clinical observations is reported as “None”. The Coagulation endpoints was “No effects”, the Feed consumption was “No effects” and the Gross lesions was “None”. For the same molecule, the Hematology was “No effects considered as chemical related”, the Histopathology was “No test-substance-related changes” and the Morbidity and mortality was “None”. The Ophthalmology was “No ocular lesions” and the Organ weight changes was “No test-substance-related changes”.
